Activity calls are given as the source filed them. The rule behind the calls is not given here.

Data set [1] has as its target T1, Pancreatic triacylglycerol lipase (Sus scrofa, UniProt P00591).
T1 sequence (P00591 whole entry): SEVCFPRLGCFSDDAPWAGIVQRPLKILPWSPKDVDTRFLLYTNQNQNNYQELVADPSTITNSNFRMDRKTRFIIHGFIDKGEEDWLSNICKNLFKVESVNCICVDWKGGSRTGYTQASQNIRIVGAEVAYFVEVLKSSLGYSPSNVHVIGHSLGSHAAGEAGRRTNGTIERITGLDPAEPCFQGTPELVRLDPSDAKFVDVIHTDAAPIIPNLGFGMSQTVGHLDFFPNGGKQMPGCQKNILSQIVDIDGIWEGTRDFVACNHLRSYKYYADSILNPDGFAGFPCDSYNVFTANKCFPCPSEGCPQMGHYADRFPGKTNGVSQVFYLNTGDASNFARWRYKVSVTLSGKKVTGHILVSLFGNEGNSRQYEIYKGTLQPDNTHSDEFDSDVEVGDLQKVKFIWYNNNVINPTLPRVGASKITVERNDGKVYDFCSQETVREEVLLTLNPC
In words: Inhibition of porcine pancreatic lipase assessed as reduction in 4-nitrophenol formation from 4-nitrophenyl butyrate substrate preincubated for 30 mins followed by substrate addition measured after 5 mins by spectrophotometer.

In data set [2] the target is T1, Pancreatic triacylglycerol lipase. As to the kind of experiment: Competitive inhibition of porcine pancreatic lipase 4-nitrophenyl butyrate substrate preincubated for 30 mins followed by substrate addition measured after 5 mins by Dixon plot method.
Data set [3] addresses T2, Pancreatic triacylglycerol lipase (Sus scrofa) (UniProt P00591).
T2 sequence (whole entry): T1 sequence (P00591 whole entry)
In words: Inhibition of porcine pancreatic lipase using tributyrin as substrate preincubated for 30 mins measured at 1 min time interval for 5 mins in presence of NaTDC in reaction mixture by pH-Stat method.

In data set [4] the target is T2, Pancreatic triacylglycerol lipase (Sus scrofa). As to the kind of experiment: Inhibition of porcine pancreatic lipase using tributyrin as substrate incubated for 30 mins measured at 1 min time interval for 5 mins in presence of NaTDC in incubation medium by pH-Stat method.
The target in data set [5] is T3, Pancreatic triacylglycerol lipase (Homo sapiens, UniProt P16233).
T3 sequence (P16233 whole entry): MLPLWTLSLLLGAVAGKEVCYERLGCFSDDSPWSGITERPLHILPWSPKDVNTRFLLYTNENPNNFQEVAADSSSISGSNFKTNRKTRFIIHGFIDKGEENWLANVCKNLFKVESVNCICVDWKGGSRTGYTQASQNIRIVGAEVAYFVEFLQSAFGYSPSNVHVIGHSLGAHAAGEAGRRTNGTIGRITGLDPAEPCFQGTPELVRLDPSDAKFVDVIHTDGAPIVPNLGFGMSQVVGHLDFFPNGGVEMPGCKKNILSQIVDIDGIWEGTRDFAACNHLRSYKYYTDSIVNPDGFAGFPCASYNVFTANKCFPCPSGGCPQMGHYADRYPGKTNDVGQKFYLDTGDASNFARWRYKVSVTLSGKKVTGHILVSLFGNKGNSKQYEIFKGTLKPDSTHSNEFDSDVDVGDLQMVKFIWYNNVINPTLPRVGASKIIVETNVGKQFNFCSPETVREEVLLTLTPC
As to the kind of experiment: Inhibition of pancreatic lipase (unknown origin).

Compound in data set [6]: CCCCCCCCCCC[C@@H](C[C@@H]1OC(=O)[C@H]1CCCCCC)OC(=O)[C@H](CC(C)C)NC=O
As to the kind of experiment: (§1) Competitive inhibition of porcine pancreatic lipase assessed as enzyme Km at 5 uM in presence of varying levels of 4-nitophenyl butyrate by Lineweaver-burk plot method. The note with it: Sus scrofa.

Compound in data set [7]: COc1cc(NC(=O)C(=O)c2ccc3[nH]c4ccccc4c3c2)cc(OC)c1OC
Described as §1. The settings on record: Sus scrofa.

Compound in data set [8]: COc1cc(NC(=O)C(=O)c2ccc3c(c2)c2ccccc2n3Cc2ccc(Cl)cc2)cc(OC)c1OC
The data set is described as §1. The settings on record: Sus scrofa.

Compound in data set [9]: COc1ccc(NC(=O)C(=O)c2ccc3c(c2)c2ccccc2n3Cc2ccc(Cl)cc2)cc1OC
The description is as §1. The note with it: Sus scrofa.

Compound in data set [10]: CCCCCCCCCCC[C@@H](C[C@@H]1OC(=O)[C@H]1CCCCCC)OC(=O)[C@H](CC(C)C)NC=O
In words: (§2) Competitive inhibition of porcine pancreatic lipase assessed as enzyme Km at 10 uM in presence of varying levels of 4-nitophenyl butyrate by Lineweaver-burk plot method. The note with it: Sus scrofa.

Compound in data set [11]: COc1cc(NC(=O)C(=O)c2ccc3[nH]c4ccccc4c3c2)cc(OC)c1OC
The description is as §2. The settings on record: Sus scrofa.

Compound in data set [12]: COc1cc(NC(=O)C(=O)c2ccc3c(c2)c2ccccc2n3Cc2ccc(Cl)cc2)cc(OC)c1OC
The data set is described as §2. The settings on record: Sus scrofa.

Compound in data set [13]: COc1ccc(NC(=O)C(=O)c2ccc3c(c2)c2ccccc2n3Cc2ccc(Cl)cc2)cc1OC
The data set is described as §2. The settings on record: Sus scrofa.

Compound in data set [14]: CCCCCCCCCCC[C@@H](C[C@@H]1OC(=O)[C@H]1CCCCCC)OC(=O)[C@H](CC(C)C)NC=O
In words: (§3) Competitive inhibition of porcine pancreatic lipase assessed as enzyme Km at 20 uM in presence of varying levels of 4-nitophenyl butyrate by Lineweaver-burk plot method. The note with it: Sus scrofa.

Compound in data set [15]: COc1cc(NC(=O)C(=O)c2ccc3[nH]c4ccccc4c3c2)cc(OC)c1OC
The data set is described as §3. The settings on record: Sus scrofa.

Compound in data set [16]: COc1cc(NC(=O)C(=O)c2ccc3c(c2)c2ccccc2n3Cc2ccc(Cl)cc2)cc(OC)c1OC
The description is as §3. The settings on record: Sus scrofa.

Compound in data set [17]: COc1ccc(NC(=O)C(=O)c2ccc3c(c2)c2ccccc2n3Cc2ccc(Cl)cc2)cc1OC
Described as §3. The settings on record: Sus scrofa.

Compound in data set [18]: CCCCCCCCCCC[C@@H](C[C@@H]1OC(=O)[C@H]1CCCCCC)OC(=O)[C@H](CC(C)C)NC=O
In words: (§4) Competitive inhibition of porcine pancreatic lipase assessed as enzyme Vmax in presence of varying levels of 4-nitophenyl butyrate by Lineweaver-burk plot method. The note with it: Sus scrofa.

Compound in data set [19]: COc1cc(NC(=O)C(=O)c2ccc3[nH]c4ccccc4c3c2)cc(OC)c1OC
The data set is described as §4. The note with it: Sus scrofa.

Compound in data set [20]: COc1cc(NC(=O)C(=O)c2ccc3c(c2)c2ccccc2n3Cc2ccc(Cl)cc2)cc(OC)c1OC
Described as §4. The settings on record: Sus scrofa.

Compound in data set [21]: COc1ccc(NC(=O)C(=O)c2ccc3c(c2)c2ccccc2n3Cc2ccc(Cl)cc2)cc1OC
Described as §4. The note with it: Sus scrofa.

One may read the IC50 as the midpoint of a concentration-inhibition curve. For the molecule `O=C(Nc1ccncc1)C(=O)c1ccc2c(c1)c1ccccc1n2Cc1ccc(Cl)cc1`, the IC50 in data set [1] was 19.9 µM.
One may read the Ki as a measure of affinity in units of concentration, obtained from inhibition or displacement. Take `COc1cc(NC(=O)C(=O)c2ccc3c(c2)c2ccccc2n3Cc2ccc(Cl)cc2)cc(OC)c1OC`: the IC50 in [1] was 8.72 µM. In data set [2], this molecule registered a Ki of 19.6 µM. For the same molecule, the XI50 in [3] is 21.9. The inhibition result in [4] is “Active”.
As for `COc1cc2[nH]c3c4c(c(C)cc3c2cc1OC)OC(C)(C)C=C4`, the IC50 in [5] was 429 µM.
Turning to `COc1cc(NC(=O)C(=O)c2ccc3c(c2)c2ccccc2n3C)cc(OC)c1OC`, the IC50 in data set [1] came to 23.1 µM.
In the case of `O=C(Nc1ccc2ncccc2c1)C(=O)c1ccc2c(c1)c1ccccc1n2Cc1ccc(Cl)cc1`, in [1], the IC50 worked out at 23 µM.
For `CC(C)=CCCC1(C)C=Cc2c(c(C)cc3c2[nH]c2ccccc23)O1` (stereo not drawn) [MAHANIMBINE], the IC50 in data set [5] came to 17.9 µM.
As to `COc1ccc(NC(=O)C(=O)c2ccc3[nH]c4ccccc4c3c2)cc1`, in [1], the IC50 is 19.3 µM.
Regarding `CCn1c2ccccc2c2cc(C(=O)C(=O)Nc3cc(OC)c(OC)c(OC)c3)ccc21`, the IC50 in data set [1] worked out at 11.4 µM.
Consider `COc1cc(NC(=O)C(=O)c2ccc3[nH]c4ccccc4c3c2)cc(OC)c1OC`, for which the IC50 in data set [1] was 9.58 µM. Also, the affinity in [2], expressed as Ki, was 21.6 µM. Further, the XI50 in data set [3] worked out at 26.2. The inhibition result in [4] is “Active”.
For `CCn1c2ccccc2c2cc(C(=O)C(=O)Nc3ccc(OC)c(OC)c3)ccc21`, the IC50 in data set [1] stood at 16.4 µM.
For `CCn1c2ccccc2c2cc(C(=O)C(=O)Nc3ccc4ncccc4c3)ccc21`, in data set [1], the IC50 was 15.5 µM.
Take `COc1ccc(NC(=O)C(=O)c2ccc3[nH]c4ccccc4c3c2)cc1OC`: the IC50 in data set [1] was 44.1 µM.
As for `Cc1ccc(NC(=O)C(=O)c2ccc3c(c2)c2ccccc2n3Cc2ccc(Cl)cc2)cc1`, the IC50 in data set [1] was 13.5 µM.
Take `Cc1cnc(NC(=O)C(=O)c2ccc3c(c2)c2ccccc2n3Cc2ccc(Cl)cc2)s1`: the IC50 in data set [1] worked out at 32.8 µM.
Turning to `O=C(Nc1ccc(F)cc1)C(=O)c1ccc2c(c1)c1ccccc1n2Cc1ccc(Cl)cc1`, in [1], the IC50 was determined as 28 µM.
For the molecule `Cn1c2ccccc2c2cc(C(=O)C(=O)Nc3ccccc3)ccc21`, the IC50 in [1] stood at 36.2 µM.
As to `COc1ccc(NC(=O)C(=O)c2ccc3c(c2)c2ccccc2n3Cc2ccc(Cl)cc2)cc1`, the IC50 in [1] is 14.8 µM.
With `COc1cccc(NC(=O)C(=O)c2ccc3c(c2)c2ccccc2n3Cc2ccc(Cl)cc2)c1`, the IC50 in data set [1] is 26.6 µM.
Consider `CN(C)c1ccc(NC(=O)C(=O)c2ccc3c(c2)c2ccccc2n3Cc2ccc(Cl)cc2)cc1`, for which, in [1], the IC50 was found to be 14.8 µM.
As to `O=C(Nc1ccncc1)C(=O)c1ccc2[nH]c3ccccc3c2c1`, the IC50 in [1] was found to be 29.4 µM.
As for `COc1cccc(NC(=O)C(=O)c2ccc3[nH]c4ccccc4c3c2)c1`, the IC50 in [1] was 33 µM.
As for `COc1ccc(NC(=O)C(=O)c2ccc3c(c2)c2ccccc2n3Cc2ccc(Cl)cc2)cc1OC`, the IC50 in data set [1] was 6.31 µM. The Ki in data set [2] came out at 17.5 µM. In data set [3], the XI50 worked out at 21.9. Besides, in data set [4], the inhibition entry is “Active”.
As for `CCCCCCCCCCC[C@@H](C[C@@H]1OC(=O)[C@H]1CCCCCC)OC(=O)[C@H](CC(C)C)NC=O`, the XI50 in data set [3] stood at 3.14.
With `O=C(Nc1ccccc1)C(=O)c1ccc2c(c1)c1ccccc1n2Cc1ccc(Cl)cc1`, in data set [1], the IC50 is 13.9 µM.
As for `O=C(Nc1ccccc1)C(=O)c1ccc2[nH]c3ccccc3c2c1`, the IC50 in data set [1] was 29.7 µM.
For `COc1ccc2[nH]c3c4c(c(C)cc3c2c1)OC(C)(C)C=C4` [KOENIMBINE], the IC50 in data set [5] came out at 169 µM.
As to `CCn1c2ccccc2c2cc(C(=O)C(=O)Nc3ccccc3)ccc21`, in data set [1], the IC50 stood at 24.2 µM.
As to `CCn1c2ccccc2c2cc(C(=O)C(=O)Nc3ccc(N(C)C)cc3)ccc21`, the IC50 in [1] came to 56.2 µM.

B1: Pancreatic triacylglycerol lipase (Sus scrofa), P00591 (protein)
chain: T1 sequence (P00591 whole entry)
Broadly, the Km is the substrate concentration at which the rate is half of its maximum. The term Vmax denotes the rate approached at saturating substrate. Take B1: the Km in data set [6] was 197 µM; in data set [7] it was 123 µM; in data set [8], 126 µM; in data set [9] it was 129 µM; in [10], 228 µM; in data set [11], 151 µM. In addition, the Km in data set [12] stood at 152 µM; in [13] it was 156 µM; in data set [14], 253 µM; in data set [15], 163 µM; in data set [16], 165 µM; in [17], 179 µM. Also, the Vmax was determined as 15.2 µM/min in data set [18], 15 µM/min in [19], 15.5 µM/min in data set [20] and 15.2 µM/min in data set [21].

The record behind these values is ChEMBL document CHEMBL3872244, “Synthesis, evaluation and molecular modelling studies of 2-(carbazol-3-yl)-2-oxoacetamide analogues as a new class of potential pancreatic lipase inhibitors” (Bioorg Med Chem, 2017).
